Source: patent EP4745130A1, “CRYSTAL FORMS OF TUBULIN-SRC DUAL-TARGETING INHIBITOR, PREPARATION METHOD THEREFOR AND USE THEREOF” (Hubei Bio-Pharmaceutical Industrial Technological Institute …, priority 2023, dated 2025)

Key:
[1] = Solid-state stability (XRPD and HPLC after open storage); assay type: physicochemical; conditions: for Crystal form: XRPD
Description: The purity test, dynamic solubility test, and stability test in the assay were measured using an Agilent 1260 high-performance liquid chromatograph, and the salt formation molar ratio of ions was tested by ion chromatography, and the analytical conditions are shown in Table 19 and Table 20. Table 19 High-performance liquid chromatography test conditions

[2] = Suspension competition test between free form crystal forms A and B; assay type: physicochemical; conditions: in words; at room temperature and 50°C, compared with the free form crystal form B
Description: Table 24 Suspension competition test results between free form crystal forms A and B

[3] = Dynamic solubility experiment at 37°C (water, SGF, FaSSIF, FeSSIF); conditions: for S: solubility: solid feed 10 mg/mL; for pH: pH value of the filtrate
Description: Rotating mixing was carried out at 37°C at a solid feed concentration of 10 mg/mL (calculated as the compound of Formula I). […] After sampling at each time point, the samples were centrifuged (10000 rpm) and filtered (0.45 µm PTFE filter head), and the HPLC concentration and pH value of the filtrate were measured.
100 mg of NaCl and 50 mg of Triton X-100 were weighed into a 50 mL volumetric flask, and purified water was added to complete dissolution. 816 µL of 1 M hydrochloric acid was added thereto, and the pH was adjusted to 1.8 with 1 M hydrochloric acid or 1 M NaOH solution. Purified water was added to make up to volume.
340 mg of anhydrous NaH2PO4 and 620 mg of NaCl were weighed into a 100 mL volumetric flask. Purified water was added to complete dissolution, followed by addition of 55.44 µL of 50% NaOH solution, and the pH was adjusted to 6.5 using 1M HCl or 1M NaOH solution. Purified water was added to make up to volume. 110 mg of SIF powder was then weighed into a 50 mL volumetric flask, added with the above solution to complete dissolution and make up to volume.
0.82 mL of glacial acetic acid and 1.18 g of NaCl were added to a 100 mL volumetric flask. Purified water was added to complete dissolution, followed by addition of 528 µL of 50% NaOH solution, and the pH was adjusted to 5.0 using 1M HCl or 1M NaOH solution. Purified water was added to make up to volume. 560 mg of SIF powder was then weighed into a 50 mL volumetric flask, added with the above solution to complete dissolution and make up to volume.

[4] = Hygroscopicity test by dynamic vapor sorption (DVS); assay type: physicochemical; conditions: DVS, 25°C, 0%RH to 95%RH
Description: The dynamic vapor sorption (DVS) curve was collected on DVS IntrInsic from SMS (surface measurement systems). The relative humidity at 25°C was corrected using the deliquescence points of LiCl, Mg(NO3)2, and KCl. Table 18 DVS test parameters
The percentage change in sample mass was collected under constant temperature at 25°C as humidity varied from 0%RH to 95%RH.

## Cc1cc(OCCN2C[C@H]3COC[C@H]3C2)ccc1-c1ccc(CC(=O)NCc2ccccc2)nc1 [Free form crystal form A]
[1]; 25°C/60%RH/open, 1 week
  Purity (area%): 96.76 area%
  Relative to initial (%): 99.9%
  Crystal form: Free form crystal form A
[1]; 40°C/75%RH/open, 1 week
  Purity (area%): 96.70 area%
  Relative to initial (%): 99.8%
  Crystal form: Free form crystal form A
[1]; Initial
  Purity (area%): 96.86 area%
[2]
  thermodynamic stability: thermodynamically more stable crystal form
[3]; FaSSIF, 1 hour, 60 min
  S: solubility: 720 µg/mL
[3]; FaSSIF, 4 hours, 240 min
  S: solubility: 700 µg/mL
[3]; FaSSIF, 24 hours, 1440 min
  S: solubility: 630 µg/mL
[3]; FeSSIF, 1 hour, 60 min
  S: solubility: 3460 µg/mL
[3]; FeSSIF, 4 hours, 240 min
  S: solubility: 3740 µg/mL
[3]; FeSSIF, 24 hours, 1440 min
  S: solubility: 3460 µg/mL
[3]; H2O, 1 hour, 60 min
  S: solubility: 60 µg/mL
[3]; H2O, 4 hours, 240 min
  S: solubility: 80 µg/mL
[3]; H2O, 24 hours, 1440 min
  S: solubility: 60 µg/mL
[3]; SGF, 1 hour, 60 min
  S: solubility: 6710 µg/mL
[3]; SGF, 4 hours, 240 min
  S: solubility: 6770 µg/mL
[3]; SGF, 24 hours, 1440 min
  S: solubility: 6610 µg/mL
[3]; FaSSIF, 1 hour
  pH: 6.6
[3]; FaSSIF, 4 hours
  pH: 6.6
[3]; FaSSIF, 24 hours
  pH: 6.6
[3]; FeSSIF, 1 hour
  pH: 5.3
[3]; FeSSIF, 4 hours
  pH: 5.4
[3]; FeSSIF, 24 hours
  pH: 5.4
[3]; H2O, 1 hour
  pH: 8.6
[3]; H2O, 4 hours
  pH: 8.6
[3]; H2O, 24 hours
  pH: 8.5
[3]; SGF, 1 hour
  pH: 5.7
[3]; SGF, 4 hours
  pH: 5.8
[3]; SGF, 24 hours
  pH: 5.9
[4]
  hygroscopicity: almost non-hygroscopic
